Laboratory results taken from US9284297B2, “Halofuginone analogs for inhibition of tRNA synthetases and uses thereof” (President and Fellows of Harvard College, priority 2008, dated 2016).

What was measured:
[1] = test system: TGFβ-induced Smad phosphorylation and lymphocyte responses to TGFβ; experiment: TGFβ signaling in T and B cells; format: cell-based, murine; details: low dose HF; 10 μM SB-431542
Procedure: FIG. 10. […] FIG. 10A is a set of FACS analyses of CD4^+ CD25^− T cells activated in Th1 or Th2 polarizing conditions, either in the presence or absence of TGFβ. DMSO, 10 nM HF, 10 nM MAZ1310, or 10 μM SB-431542 added as indicated at the time of activation. Intracellular cytokine staining was performed on expanded T cells on day 5.
FIG. 10D depicts western blot analyses of purified CD4^+ CD25^− T cells treated with DMSO, 40 nM MAZ1310, titrating concentrations of HF (2.5-40 nM) or 10 μM SB-431542 for 30 minutes in complete medium supplemented with 0.1% fetal calf serum. T cells were then activated in the presence or absence of 3 ng/ml TGFβ. Whole cell extracts were prepared after 1 hour of stimulation and western blot analyses were performed using the indicated antibodies.
Th17 differentiation is synergistically regulated by TGFβ and the pro-inflammatory cytokines IL-6 and IL-21. […] Since STAT3 is the major transducer of IL-6 and IL-21 signaling, the kinetics of STAT3 phosphorylation in HF-treated T cells were examined.
Whole cell lysates were generated from T cells activated for the indicated times. For STAT3 and Smad2/3 western blots cells were harvested, washed in PBS and lysed in 50 mM Tris, pH 7.4, 0.1% SDS, 1% Triton-X100, 140 mM NaCl, 1 mM EDTA, 1 mM EGTA supplemented with protease inhibitors tablets (Roche, Germany), 1 mM NaF and 1 mM Na3VO4. […]

[2] = in vivo; cited from earlier work
[3] = target: T1, prolyl-tRNA synthetase (EPRS) (Oryctolagus cuniculus, UniProt G1T2I4); experiment: Incorporation of 14C-labeled proline into tRNA in rabbit reticulocyte lysate; format: biochemical; details: crude in vitro translation system
T1 construct: from tissue; host or cells: rabbit reticulocyte lysate
T1 sequence (G1T2I4 1-1447): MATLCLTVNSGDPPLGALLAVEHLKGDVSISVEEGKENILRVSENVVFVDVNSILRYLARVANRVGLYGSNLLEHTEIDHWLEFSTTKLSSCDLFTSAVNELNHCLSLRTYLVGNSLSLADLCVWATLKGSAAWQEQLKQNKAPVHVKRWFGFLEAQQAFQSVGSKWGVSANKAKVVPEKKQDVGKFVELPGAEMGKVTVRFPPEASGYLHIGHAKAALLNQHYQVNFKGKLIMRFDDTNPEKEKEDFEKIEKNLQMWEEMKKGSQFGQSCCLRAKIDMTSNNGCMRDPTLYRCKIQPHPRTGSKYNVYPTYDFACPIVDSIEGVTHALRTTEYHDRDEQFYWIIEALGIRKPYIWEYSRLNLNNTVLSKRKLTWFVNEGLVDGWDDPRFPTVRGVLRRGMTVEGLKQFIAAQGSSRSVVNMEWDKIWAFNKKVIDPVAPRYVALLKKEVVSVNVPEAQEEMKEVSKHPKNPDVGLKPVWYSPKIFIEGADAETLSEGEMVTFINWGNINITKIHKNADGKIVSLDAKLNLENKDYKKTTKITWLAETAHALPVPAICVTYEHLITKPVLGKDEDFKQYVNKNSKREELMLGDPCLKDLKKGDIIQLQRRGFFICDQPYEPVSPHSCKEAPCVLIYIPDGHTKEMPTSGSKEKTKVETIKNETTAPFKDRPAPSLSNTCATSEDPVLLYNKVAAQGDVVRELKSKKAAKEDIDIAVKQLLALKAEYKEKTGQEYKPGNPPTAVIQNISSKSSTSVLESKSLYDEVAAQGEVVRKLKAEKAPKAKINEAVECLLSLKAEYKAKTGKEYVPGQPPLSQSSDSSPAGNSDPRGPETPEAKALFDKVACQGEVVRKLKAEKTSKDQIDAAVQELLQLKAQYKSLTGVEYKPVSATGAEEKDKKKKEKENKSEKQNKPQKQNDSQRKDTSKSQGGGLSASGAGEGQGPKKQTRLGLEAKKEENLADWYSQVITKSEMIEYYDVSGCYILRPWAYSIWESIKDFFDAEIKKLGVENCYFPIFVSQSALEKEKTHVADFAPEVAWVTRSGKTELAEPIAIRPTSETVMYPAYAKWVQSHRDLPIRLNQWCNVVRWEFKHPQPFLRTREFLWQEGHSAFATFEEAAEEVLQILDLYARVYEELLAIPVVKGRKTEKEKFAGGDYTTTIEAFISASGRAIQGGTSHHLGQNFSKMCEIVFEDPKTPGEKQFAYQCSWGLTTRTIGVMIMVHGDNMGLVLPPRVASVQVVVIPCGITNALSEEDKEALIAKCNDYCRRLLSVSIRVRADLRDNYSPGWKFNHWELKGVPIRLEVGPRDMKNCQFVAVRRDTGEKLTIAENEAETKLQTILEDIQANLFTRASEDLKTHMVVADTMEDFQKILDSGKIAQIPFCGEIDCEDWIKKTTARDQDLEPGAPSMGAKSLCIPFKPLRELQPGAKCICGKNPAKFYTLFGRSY
Procedure: Total RNA was extracted with acidic phenol-chloroform and tRNA was isolated using miRVANA microRNA isolation kit. Radioisotope incorporation into tRNA was measured in a scintillation counter.

[4] = target: T2, Prolyl-tRNA synthetase (EPRS) purified from rabbit liver (Oryctolagus cuniculus, UniProt G1T2I4); experiment: Purified EPRS, 14C-labeled proline incorporation into tRNA; format: biochemical; details: 10 μM, 4 μM, 1 μM HF
T2 construct: Prolyl-tRNA synthetase (EPRS) purified from rabbit liver; from tissue; host or cells: rabbit liver
T2 sequence (G1T2I4 1-1447): T1 sequence (G1T2I4 1-1447)
Procedure: Purified enzyme was incubated with 100 μg/ml bovine tRNA, 50 μM ^14C-labeled proline, 5 mM ATP, and 10 mM MgCl2 for 20 minutes. Charged tRNA was isolated by precipitation on Whatman filter paper and washing with cold 5% TCA. TCA precipitable counts were assayed by scintillation counting.

[5] = test system: CD4+ CD25− T cells (Th1, Th2, iTreg differentiation, proliferation, CD25), CD8+ T cells, B cells; details: cited from earlier work
[6] = test system: TGFβ-induced Smad phosphorylation and lymphocyte responses to TGFβ; details: cited from earlier work

What does the source list for O=C(CC1NCCCC1O)Cn1cnc2cc(Br)c(Cl)cc2c1=O (stereo not drawn) [Compound 1, 7-bromo-6-chloro-3-[3-(3-hydroxy-2-piperidinyl)-2-oxopropyl]-4(3H)-quinazolinone]?
effect on TGFβ-induced Smad phosphorylation and other lymphocyte responses to TGFβ [1]: inhibited neither TGFβ-induced Smad phosphorylation nor a variety of other lymphocyte responses to TGFβ; toxicity in humans [2]: some toxicity in humans, such as nausea, vomiting, and fatigue, and possibly bleeding complications; inhibition of 14C proline incorporation into tRNA [3]: inhibitor of prolyl-tRNA synthetase (EPRS); inhibition of purified EPRS (TCA precipitable counts) [4]: directly inhibits purified mammalian EPRS; concentrations that generally inhibit CD4+ T cell, CD8+ T cell, and B220+ B cell activation [5]: 20 to 40 nM; concentrations attenuating TGFβ signaling [6]: > 50 nM
